Values quoted from earlier work in patent US20220304959A1, “TREATMENT OF LONG HAULERS SYNDROME WITH NICLOSAMIDE” (First Wave BioPharma, priority 2021, published 2022).

## O=C(Nc1ccc([N+](=O)[O-])cc1Cl)c1cc(Cl)ccc1O [niclosamide, 5-chloro-N-(2-chloro-4-nitrophenyl)-2-hydroxybenzamide]
Administered to millions of people, including children
  Overall safety profile: very good safety profile
Human use, literature reports
  Less frequently reported AEs: rash, oral irritation, fever, rectal bleeding, weakness, bad taste in mouth, sweating, palpitation, constipation, alopecia, oedema of an arm, backache, irritability: < 1%
  Other reported AEs: vomiting; abdominal discomfort possibly associated with anorexia, diarrhea, drowsiness, dizziness and headache: 1-4 % of patients
